Measurements from patent publication US11311524B2, “Pharmaceutical composition used for treatment of HTLV-1-associated myelopathy” (DAIICHI SANKYO COMPANY, LIMITED, priority 2017, dated 2022).

What was measured:
HCT-5 cells = assay: Apoptosis of HCT-5 cells (Annexin V-PE / 7-AAD, FACS); assay type: cell-based, human; conditions: HCT-5, 1 μM, 21 days
Protocol: In this Example, experiments were carried out using the cells cultured for 21 days in Example 5. To detect apoptotic cells in the cells cultured for 21 days by adding 1 μM of compound A or compound B, the cells were stained by use of PE Annexin V apoptosis Detection Kit I (BD) and analyzed by FACS. In this analysis, the viable cells were detected based on FSC (forward scatter)-SSC (side scatter) plots. The viable cells were analyzed by Annexin V-PE (annexin V) and 7-AAD (7-amino actinomycin D). Early apoptotic cells were detected as Annexin V (+) 7-AAD (−) cells. The results were as shown in FIG. 8 (HCT-4 cells) and FIG. 9 (HCT-5 cells).

[1] = test system: HTLV-1 infected cells in HAM patient's PBMC; assay: HTLV-1 pro-viral load (infected cell rate) in HAM patient-derived PBMC by real time PCR; assay type: cell-based, human; conditions: 12 days culture; for Reduction in HTLV-1 pro-viral load: 1000 nM, average of all HAM patients; for Cases in which HTLV-1 pro-viral load in HAM patient's PBMC decreases: PBMC of 8 HAM patients
Protocol: PBMC taken from 8 HAM patients were suspended in a culture medium (RPMI1640 culture medium containing 10% FBS) and seeded in a 48-well plate in a ratio of 5×10^5 cells per well, and compound A or compound B was added so as to provide a final concentration of 1, 10, 100 or 1000 nM. The culture solution of 0.5 mL in total was cultured at 37° C. in 5% CO2 conditions for 12 days. A group treated with DMSO and a group treated with PSL (1 μg/mL) were used as controls. Day 12 after initiation of culture, the culture solution was centrifuged, and thereafter, the cell suspension was recovered from each of the cultures carried out under different conditions and centrifuged. After the supernatant was removed, the cell pellet was subjected to genomic DNA extraction. The genome DNA extracted was subjected to real time PCR to measure HTLV-1 pro-viral load (infected cell rate) (Yamano et al., Blood. 2002, 99 (1): 88-94). Based on the HTLV-1 pro-viral load in cells, which were obtained by adding DMSO to each of the HAM patient's PBMC and culturing the PBMC, as 100%, the relative value of HTLV-1 pro-viral load in a group treated with compound A, compound B or PSL was calculated, and then, an average value of 8 HAM patient cases was obtained. The significance test was carried out by using the Friedman test of GraphPad Prism6 (MDF).

Q: `Cc1cc(C)c(CNC(=O)c2cc(Br)c3c(c2C)O[C@@](C)([C@H]2CC[C@H](N(C)C)CC2)O3)c(=O)[nH]1` [compound A, (2R)-7-bromo-2-[trans-4-(dimethylamino)cyclohexyl]-N-[(4,6-dimethyl-2-oxo-1,2-dihydropyridin-3-yl)methyl]-2,4-dimethyl-1,3-benzodioxole-5-carboxamide] was tested. Which “Number of early apoptotic cells (Annexin V (+) 7-AAD (−))” value (HCT-5 cells) did it give?
A: The value was “the number of early apoptotic cells increased”.

Q: What about the “Number of viable cells (FSC-SSC)” value (HCT-5 cells) of the same compound?
A: Its value is “the number of viable cells decreases”.

Q: What about the “Reduction in HTLV-1 pro-viral load” value [1] of the same compound?
A: Its value is “significant reduction in pro-viral load”.

Q: What about the “Cases in which HTLV-1 pro-viral load in HAM patient's PBMC decreases” value [1] of the same compound?
A: Its value is 5 out of 8.

Q: Which “Number of early apoptotic cells (Annexin V (+) 7-AAD (−))” value (HCT-5 cells) does the source give for `Cc1cc(C)c(CNC(=O)c2cc(Cl)c3c(c2C)O[C@@](C)([C@H]2CC[C@H](N(C)C)CC2)O3)c(=O)[nH]1` [compound B, (2R)-7-chloro-2-[trans-4-(dimethylamino)cyclohexyl]-N-[(4,6-dimethyl-2-oxo-1,2-dihydropyridin-3-yl)methyl]-2,4-dimethyl-1,3-benzodioxole-5-carboxamide] here?
A: Its value is “the number of early apoptotic cells increased”.

Q: And the “Number of viable cells (FSC-SSC)” value (HCT-5 cells)?
A: The value was “the number of viable cells decreases”.

Q: What about the “Reduction in HTLV-1 pro-viral load” value [1] of the same compound?
A: Its value is “significant reduction in pro-viral load”.

Q: What about the “Cases in which HTLV-1 pro-viral load in HAM patient's PBMC decreases” value [1] of the same compound?
A: Its value is 5 out of 8.
